This is an account of results in patent US20260248772A1, “NOVEL SULFANONE DERIVATIVE OR PHARMACEUTICALLY ACCEPTABLE SALT THEREOF, AND USE THEREOF” (KOREA INSTITUTE OF SCIENCE AND TECHNOLOGY, priority 2022, published 2026).

Series [1] deals with BV-2 mouse microglial cells. As to the kind of experiment: NO (nitric oxide) inhibitory activity in LPS-treated microglial cells. The following applies: LPS 1 μg/ml, 24 hours, read-out: Amount of NO (% of control). Type of series: cell-based.
A further series deals with CYP2C19 (Homo sapiens, UniProt P33261). The series is described as follows: in vitro. The note with it: human liver microsomes, pH 7.4, probe S-mephenytoin 100 μM (in five-substrate cocktail). A general note: Liver microsomes are a subcellular fraction often used to study metabolism.
The target in the next series is CYP2D6 (Homo sapiens, UniProt P10635). The series is described as follows: in vitro. The following applies: human liver microsomes, pH 7.4, probe Dextromethorphan 5 μM (in five-substrate cocktail).
In another series the target is CYP2C9 (Homo sapiens, UniProt P11712). The series is described as follows: in vitro. The following applies: human liver microsomes, pH 7.4, probe Diclofenac 10 μM (in five-substrate cocktail).
Another series addresses T1, CYP1A2 (Homo sapiens, UniProt P05177).
T1 sequence (P05177 1-516): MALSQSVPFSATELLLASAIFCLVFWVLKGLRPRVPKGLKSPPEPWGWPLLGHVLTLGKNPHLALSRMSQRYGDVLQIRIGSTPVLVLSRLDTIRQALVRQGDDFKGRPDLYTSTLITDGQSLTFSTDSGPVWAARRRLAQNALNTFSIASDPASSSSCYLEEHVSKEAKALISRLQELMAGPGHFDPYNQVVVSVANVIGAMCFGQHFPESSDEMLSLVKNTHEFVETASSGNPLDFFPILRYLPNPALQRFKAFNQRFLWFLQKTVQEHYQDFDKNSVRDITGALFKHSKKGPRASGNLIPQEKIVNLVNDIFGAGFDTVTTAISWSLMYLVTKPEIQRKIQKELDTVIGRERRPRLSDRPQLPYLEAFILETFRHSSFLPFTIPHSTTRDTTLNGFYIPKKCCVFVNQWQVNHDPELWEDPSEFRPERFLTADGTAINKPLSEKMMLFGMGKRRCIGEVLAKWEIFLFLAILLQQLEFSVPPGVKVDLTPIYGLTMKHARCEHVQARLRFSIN
The series is described as follows: in vitro. The following applies: human liver microsomes, pH 7.4, probe Phenacetin 50 μM (in five-substrate cocktail).

For the next series, the target named is CYP3A4 (Homo sapiens, UniProt P08684). As to the kind of experiment: in vitro. The following applies: human liver microsomes, pH 7.4, probe Midazolam […] (in five-substrate cocktail).
The nature of series [2]: Metabolic stability using liver microsomes. Type of series: in vitro ADME, Human. The following applies: for drug remaining after incubation with microsomes: after 30 minutes; for Human (% remaining): liver microsomes, 30 minutes at 37° C.
A further series has as its system Nrf2. The series is described as follows: Nrf2 functional cell-based assay (DiscoveRx), luminescence. The note with it: U2OS cells; for pEC50: 6 hours incubation, read-out: Nrf2 activation EC50.
The conditions of series [3]: known; cited from earlier work.
Series [4] can be described thus: Metabolic stability using liver microsomes. It counts as in vitro ADME, Mouse. The following applies: 30 minutes.
Series [5] is described as follows: Metabolic stability using liver microsomes. Type of series: in vitro ADME, Rat. The note with it: 30 minutes. The protocol: Therefore, in order to predict the extent of drug metabolism by the liver, the main organ for drug metabolism, through in vitro experiments, the metabolic stability of drugs was evaluated using liver microsomes.
Then, an NADPH regeneration system solution was added thereto and the mixed solution was incubated at 37° C. for 30 minutes.

pEC50: −log10 of the molar value. Where a name gives a salt, the structure may show the parent alone.

CYP2C19, sequence (P33261 whole entry): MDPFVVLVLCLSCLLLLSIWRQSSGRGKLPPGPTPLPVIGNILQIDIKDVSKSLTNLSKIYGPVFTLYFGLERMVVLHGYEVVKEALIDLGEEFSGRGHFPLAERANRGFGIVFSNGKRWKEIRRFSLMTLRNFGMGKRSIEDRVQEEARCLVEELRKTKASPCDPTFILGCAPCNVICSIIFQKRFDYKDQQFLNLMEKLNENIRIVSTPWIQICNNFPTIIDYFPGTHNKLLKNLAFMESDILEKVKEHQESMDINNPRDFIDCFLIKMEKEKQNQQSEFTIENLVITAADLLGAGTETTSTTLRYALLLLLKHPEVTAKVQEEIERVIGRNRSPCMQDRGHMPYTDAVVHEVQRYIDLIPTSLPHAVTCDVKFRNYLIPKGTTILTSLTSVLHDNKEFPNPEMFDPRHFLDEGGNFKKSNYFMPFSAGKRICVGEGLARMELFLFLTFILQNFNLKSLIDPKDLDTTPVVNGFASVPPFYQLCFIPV
CYP3A4, sequence (P08684 whole entry): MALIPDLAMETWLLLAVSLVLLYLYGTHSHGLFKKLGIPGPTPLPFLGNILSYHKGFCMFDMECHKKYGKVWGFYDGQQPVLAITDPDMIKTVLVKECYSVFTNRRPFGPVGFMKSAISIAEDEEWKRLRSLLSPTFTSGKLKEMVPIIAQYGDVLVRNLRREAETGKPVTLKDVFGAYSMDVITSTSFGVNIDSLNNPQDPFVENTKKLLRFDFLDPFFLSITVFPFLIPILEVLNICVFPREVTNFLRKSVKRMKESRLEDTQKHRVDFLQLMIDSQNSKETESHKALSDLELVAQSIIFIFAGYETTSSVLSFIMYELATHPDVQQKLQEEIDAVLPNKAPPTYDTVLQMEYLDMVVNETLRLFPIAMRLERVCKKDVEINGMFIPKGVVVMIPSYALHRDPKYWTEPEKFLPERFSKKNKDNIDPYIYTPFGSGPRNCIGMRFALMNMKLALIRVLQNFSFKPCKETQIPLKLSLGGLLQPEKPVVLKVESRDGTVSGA
CYP2D6, sequence (P10635 whole entry): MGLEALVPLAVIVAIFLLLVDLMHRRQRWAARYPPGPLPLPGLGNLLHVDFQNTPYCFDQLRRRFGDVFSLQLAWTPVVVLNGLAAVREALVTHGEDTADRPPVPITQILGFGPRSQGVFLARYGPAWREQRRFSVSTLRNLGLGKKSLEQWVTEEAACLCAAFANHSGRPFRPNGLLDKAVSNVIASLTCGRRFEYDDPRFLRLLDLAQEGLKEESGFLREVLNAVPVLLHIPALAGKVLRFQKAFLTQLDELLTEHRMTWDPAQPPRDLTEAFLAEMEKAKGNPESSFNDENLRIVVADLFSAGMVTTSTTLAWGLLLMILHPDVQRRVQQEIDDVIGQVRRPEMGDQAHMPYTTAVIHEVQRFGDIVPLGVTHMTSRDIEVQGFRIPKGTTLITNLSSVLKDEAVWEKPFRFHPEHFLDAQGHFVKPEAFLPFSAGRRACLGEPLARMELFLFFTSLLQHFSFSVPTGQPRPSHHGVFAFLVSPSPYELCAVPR
CYP2C9, sequence (P11712 whole entry): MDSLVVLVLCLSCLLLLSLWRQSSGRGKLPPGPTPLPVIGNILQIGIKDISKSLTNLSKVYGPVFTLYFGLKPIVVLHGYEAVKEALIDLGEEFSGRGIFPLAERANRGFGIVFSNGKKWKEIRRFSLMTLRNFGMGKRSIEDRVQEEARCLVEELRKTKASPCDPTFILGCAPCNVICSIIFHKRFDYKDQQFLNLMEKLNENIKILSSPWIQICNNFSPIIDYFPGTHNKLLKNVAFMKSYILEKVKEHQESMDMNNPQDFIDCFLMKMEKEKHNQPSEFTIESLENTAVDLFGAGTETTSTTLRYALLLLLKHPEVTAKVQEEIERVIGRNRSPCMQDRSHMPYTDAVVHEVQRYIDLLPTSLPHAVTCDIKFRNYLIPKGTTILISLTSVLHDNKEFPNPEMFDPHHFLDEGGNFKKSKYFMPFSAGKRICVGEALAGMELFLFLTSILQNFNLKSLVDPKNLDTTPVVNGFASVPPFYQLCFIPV

For `N=S(=O)(/C=C/c1ccccn1)c1ccccc1F` (stereo not drawn) [Compound 1-1, (E)-(2-Fluorophenyl)(imino)(2-(pyridin-2-yl)vinyl)-λ^6-sulfanone], in [1], the activity at 0.1 µM was 97%. For the same molecule, the activity at 1 µM in series [1] was 74.2%. Besides, the activity at 10 µM in series [1] was less than 3%. The activity at 15 min, 10 µM at CYP2C19 turned out to be 66.9%; at CYP2D6, 82.7%; on CYP2C9, 85.7%; on CYP1A2, 87.8%; at CYP3A4 it was 121%.
For `COc1ccc(S(=N)(=O)/C=C/c2ccccn2)cc1` (stereo not drawn) [Compound 1-2, (E)-Imino(4-methoxyphenyl)(2-(pyridin-2-yl)vinyl)-λ^6-sulfanone], the “drug remaining after incubation with microsomes” value in series [2] is “remained at a high concentration”. For the same molecule, in [1], the activity at 0.1 µM is 110%. The activity at 1 µM in series [1] amounted to 115%. Also, the activity at 10 µM in series [1] turned out to be 35.8%. Further, the activity at 15 min, 10 µM was determined as 70.4% at CYP2C19; 98.6% on CYP2D6; 96.6% at CYP2C9; 88.9% on CYP1A2; 97.5% at CYP3A4.
Regarding `N=S(=O)(/C=C/c1ncccc1Cl)c1ccccc1Cl` (stereo not drawn) [Compound 1-4, (E)-(2-chlorophenyl)(2-(3-chloropyridin-2-yl)vinyl)(imino)-λ^6-sulfanone], the “drug remaining after incubation with microsomes” value in [2] is recorded as “remained at a high concentration”.
On to `N=S(=O)(/C=C/c1ncccc1F)c1ccccc1F` (stereo not drawn) [Compound 1-5, (E)-(2-fluorophenyl)(2-(3-fluoropyridin-2-yl)vinyl)(imino)-λ^6-sulfanone], for which, in [1], the activity at 0.1 µM was 101%, the activity at 1 µM turned out to be 69.2% and the activity at 10 µM stood at 7.96%.
For the molecule `COc1ccccc1S(=N)(=O)/C=C/c1ncccc1Cl` (stereo not drawn) [Compound 1-8, (E)-(2-(3-chloropyridin-2-yl)vinyl)(imino)(2-methoxyphenyl)-λ^6-sulfanone], the activity at 10 µM in series [1] was found to be 14.2%. Moreover, the activity at 15 min, 10 µM on CYP2C19 came out at 24.4%; at CYP2D6, 93.9%; at CYP2C9, 192%; on CYP1A2 it was 84.4%; on CYP3A4 it was 78.4%.
Take `COc1ccc(S(=N)(=O)/C=C/c2ncccc2Cl)cc1` (stereo not drawn) [Compound 1-10, (E)-(2-(3-chloropyridin-2-yl)vinyl)(imino)(4-methoxyphenyl)-λ^6-sulfanone]: the activity at 10 µM in series [1] is less than 3%. The activity at 15 min, 10 µM worked out at 6% at CYP2C19; 112% on CYP2D6; 133% at CYP2C9; 103% on CYP1A2; 109% on CYP3A4.
As for `N=S(=O)(/C=C/c1cccnc1)c1ccccc1Cl` (stereo not drawn) [Compound 1-12, (E)-(2-chlorophenyl)(imino)(2-(pyridin-3-yl)vinyl)-λ^6-sulfanone], in the series on Nrf2, the pEC50 is less than 5.00. In addition, the activity at 15 min, 10 µM on CYP2C19 came out at 68.2%; on CYP2D6, 94.4%; at CYP2C9, 87.1%; at CYP1A2 it was 86.8%; on CYP3A4, 104%.
Turning to `N=S(=O)(/C=C/c1cccnc1Cl)c1ccccc1Cl` (stereo not drawn) [Compound 1-13, (E)-(2-chlorophenyl)(2-(2-chloropyridin-3-yl)vinyl)(imino)-λ^6-sulfanone], the activity at 10 µM in [1] came to 9.26%. Besides, the activity at 15 min, 10 µM was 27.8% at CYP2C19; 95.7% on CYP2D6; 169% at CYP2C9; 93.3% on CYP1A2; 59.8% on CYP3A4.
Take `N=S(=O)(/C=C/c1cccc(Cl)c1)c1ccccn1` (stereo not drawn) [Compound 1-16, (E)-(3-chlorostyryl)(imino)(pyridin-2-yl)-λ^6-sulfanone]: the activity at 10 µM in series [1] was less than 3%.
For `N=S(=O)(/C=C/c1ccccc1C(F)(F)F)c1ccccn1` (stereo not drawn) [Compound 1-17, (E)-imino(pyridin-2-yl)(2-(trifluoromethyl)styryl)-λ^6-sulfanone], the activity at 10 µM in series [1] is less than 3%.
For `N=S(=O)(/C=C/c1ccccc1OC(F)(F)F)c1ccccn1` (stereo not drawn) [Compound 1-18, (E)-imino(pyridin-2-yl)(2-(trifluoromethoxy)styryl)-λ^6-sulfanone], the activity at 10 µM in [1] was less than 3%.
In the case of `N=S(=O)(/C=C/c1ccc(Cl)cc1)c1ccccn1` (stereo not drawn) [Compound 1-20, (E)-(4-chlorostyryl)(imino)(pyridin-2-yl)-λ^6-sulfanone], the activity at 10 µM in [1] is 20.3%.
For `C[Si](C)(C)N=S(=O)(/C=C/c1ccccc1Cl)c1ccncc1F` (stereo not drawn) [Compound 1-46, (E)-(2-chlorostyryl)(3-fluoropyridin-4-yl)((trimethylsilyl)imino)-λ^6-sulfanone], in the series with Nrf2, the “Nrf2 activation effect compared with Sulforaphane” value is on record as “better Nrf2 activation effect than Sulforaphane”.
Regarding `N=S(=O)(/C=C/c1ncccc1F)c1ccc(OCCCN2CCOCC2)cn1` (stereo not drawn) [Compound 1-53, (E)-(2-(3-fluoropyridin-2-yl)vinyl)(imino)(5-(3-morpholinopropoxy)pyridin-2-yl)-λ^6-sulfanone], the pEC50 with Nrf2 is 6.22.
With `COc1ccccc1S(=O)(/C=C/c1ccccc1Cl)=NC#N` (stereo not drawn) [Compound 1-57, (E)-N-((2-chlorostyryl)(2-methoxyphenyl)(oxo)-λ^6-sulfanylidene)cyanamide], the “Nrf2 activation effect compared with Sulforaphane” value in the series with Nrf2 was “better Nrf2 activation effect than Sulforaphane”.
In the case of `COc1ccccc1S(=O)(/C=C/c1ncccc1Cl)=NC#N` (stereo not drawn) [Compound 1-58, (E)-N-((2-(3-chloropyridin-2-yl)vinyl)(2-methoxyphenyl)(oxo)-λ^6-sulfaneylidene)cyanamide], the negative-log EC50 (pEC50) in the series with Nrf2 is 6.18.
For the molecule `COC(=O)/C=C/C(=O)OC` [DMF, Dimethyl fumarate, reference compound], in series [1], the activity at 0.1 µM is 113%, the activity at 1 µM is 60% and the activity at 10 µM was determined as 16.3%.
Regarding `C[S+]([O-])CCCCN=C=S` (stereo not drawn) [Sulforaphane, 1-isothiocyanato-4-methylsulfinylbutane], the “concentration at which high toxicity is exhibited” value in series [3] is on record as not below 5 M.
`O=S(=O)(/C=C/c1ncccc1Cl)c1ccccc1F` [drawing 157, reference compound]: the activity at 15 min, 10 µM at CYP2C19 was 16.6%; at CYP2D6 it was 86.1%; at CYP2C9 it was 45.5%; on CYP1A2, 95.8%; on CYP3A4 it was 105%.
For the molecule `O=S(=O)(/C=C/c1ncccc1Cl)c1ccccc1F` [drawing 173], in series [2], the “Human (% remaining)” value is 72 % remaining. Further, the “Mouse (% remaining)” value in [4] stood at 19 % remaining. In addition, the “Rat (% remaining)” value in series [5] turned out to be 23 % remaining.
With `O=S(=O)(/C=C/c1ccccn1)c1ccccc1F` [reference compound], the activity at 15 min, 10 µM on CYP2C19 turned out to be 38.4%; on CYP2D6, 92.4%; at CYP2C9 it was 230%; at CYP1A2, 93%; on CYP3A4, 104%.
On to `COc1ccccc1S(=O)(=O)/C=C/c1ncccc1Cl` [reference compound], for which the activity at 15 min, 10 µM at CYP2C9 came out at 209%.
On the same count and under the same terms, for `COc1ccc(S(=O)(=O)/C=C/c2ncccc2Cl)cc1` [reference compound] the value was 196%.
Take `O=S(=O)(/C=C/c1cccnc1)c1ccccc1Cl` [reference compound]: the activity at 15 min, 10 µM is 33.4% at CYP2C19; 101% on CYP2D6; 118% at CYP2C9; 84% at CYP1A2; 74.2% on CYP3A4.
Take `O=S(=O)(/C=C/c1cccnc1Cl)c1ccccc1Cl` [reference compound]: the activity at 15 min, 10 µM on CYP2C19 was 28.3%; on CYP2D6, 93.8%; at CYP2C9, 88.7%; on CYP1A2 it was 85.6%; at CYP3A4, 81.2%.
For `O=S(=O)(/C=C/c1ncccc1Cl)c1ccccc1Cl` [reference compound], the “Human (% remaining)” value in series [2] was found to be 66 % remaining. Besides, the “Mouse (% remaining)” value in series [4] was found to be 4.5 % remaining.

A word on the pEC50: it is the negative decadic logarithm of the EC50, by convention in mol/L.
